Measured values published in patent publication US20060178374A1, “Aminoheteroaryl compounds as protein kinase inhibitors” (AGOURON PHARMACEUTICALS, INC., priority 2004, published 2006).
pKi: −log10 of the molar value.

target: HGFR (c-Met) (Homo sapiens, UniProt P08581); test: HGFR Continuous-Coupled Spectrophotometric Assay; format: biochemical; conditions: HGFR enzyme 50 nM, Met-2 peptide substrate, 37° C.
In short: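 Human HGFR (50 nM final) phosphorylates the Met-2 activation-loop peptide, with ADP formation coupled through PK/LDH to NADH consumption, read as the A340 decrease over 10 min at 37 °C. Buffer was HEPES pH 7.5 with MgCl2, DTT, PEP and ATP.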

HGFR (c-Met), sequence (P08581 974-1390): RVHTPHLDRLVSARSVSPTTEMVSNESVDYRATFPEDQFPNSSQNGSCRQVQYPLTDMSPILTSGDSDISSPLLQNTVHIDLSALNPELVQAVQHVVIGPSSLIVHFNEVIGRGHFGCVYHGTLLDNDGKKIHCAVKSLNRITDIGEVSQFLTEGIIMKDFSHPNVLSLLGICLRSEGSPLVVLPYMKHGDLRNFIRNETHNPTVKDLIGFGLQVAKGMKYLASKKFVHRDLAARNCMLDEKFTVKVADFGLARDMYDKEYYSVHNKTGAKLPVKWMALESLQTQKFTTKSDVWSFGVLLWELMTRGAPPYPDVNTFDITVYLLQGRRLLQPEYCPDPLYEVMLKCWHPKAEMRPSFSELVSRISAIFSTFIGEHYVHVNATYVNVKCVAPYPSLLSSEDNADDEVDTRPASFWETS

| SMILES | pKi |
| --- | --- |
| CC(Oc1cc(C(N)=O)cnc1N)c1c(Cl)ccc(F)c1Cl (centres unmarked) [Example 81, 6-Amino-5-[1-(2,6-dichloro-3-fluoro-phenyl)-ethoxy]-nicotinamide] | 6.00 |
| CC(Oc1cc(-c2ccc(C(=O)N3CCC(N4CCCC4)CC3)cc2)cnc1N)c1cccc(C(=O)O)c1 (centres unmarked) [Example 84, 3-(1-{2-Amino-5-[4-(4-pyrrolidin-1-yl-piperidine-1-carbonyl)-phenyl]-pyridin-3-yloxy}-ethyl)-benzoic acid] | 5.26 |
| Cc1cn(-c2cnc(N)c(OC(C)c3c(Cl)ccc(F)c3Cl)c2)cn1 (centres unmarked) [Example 85, 3-[1-(2,6-Dichloro-3-fluoro-phenyl)-ethoxy]-5-(4-methyl-imidazol-1-yl)-pyridin-2-ylamine] | 6.11 |
| COC(=O)c1cn(-c2cnc(N)c(OC(C)c3c(Cl)ccc(F)c3Cl)c2)cn1 (centres unmarked) [Example 86, 1-{6-Amino-5-[1-(2,6-dichloro-3-fluoro-phenyl)-ethoxy]-pyridin-3-yl}-imidazole-4-carboxylic acid methyl ester] | 5.74 |
| CC(Oc1cc(N2CCCC2=O)cnc1N)c1c(Cl)ccc(F)c1Cl (centres unmarked) [Example 90, N-{6-Amino-5-[1-(2,6-dichloro-3-fluoro-phenyl)-ethoxy]-pyridin-3-yl}-pyrrolidin-2-one] | 6.04 |
| COc1ccc(C(=O)Nc2cnc(N)c(OC(C)c3c(Cl)ccc(F)c3Cl)c2)cc1 (centres unmarked) [Example 91, N-{6-Amino-5-[1-(2,6-dichloro-3-fluoro-phenyl)-ethoxy]-pyridin-3-yl}4-methoxy-benzamide] | 5.88 |
| COc1cc(C(=O)Nc2cnc(N)c(OC(C)c3c(Cl)ccc(F)c3Cl)c2)ccn1 (centres unmarked) [Example 92, N-{6-Amino-5-[1-(2,6-dichloro-3-fluoro-phenyl)-ethoxy]-pyridin-3-yl}-2-methoxy-isonicotinamide] | 5.77 |
| CC(Oc1cc(NC(=O)c2cnccn2)cnc1N)c1c(Cl)ccc(F)c1Cl (centres unmarked) [Example 93, Pyrazine-2-carboxylic acid {6-amino-5-[1-(2,6-dichloro-3-fluoro-phenyl)-ethoxy]-pyridin-3-yl}-amide] | 5.83 |
| CC(Oc1nc(-c2ccccc2NS(C)(=O)=O)cnc1N)c1c(Cl)ccc(F)c1Cl (centres unmarked) [Example 94, N-(2-{5-Amino-6-[1-(2,6-dichloro-3-fluoro-phenyl)-ethoxy]-pyrazin-2-yl}-phenyl)-methanesulfonamide] | 5.42 |
| Cc1cc2cccc(-c3cnc(N)c(OC(C)c4c(Cl)ccc(F)c4Cl)n3)c2[nH]1 (centres unmarked) [Example 95, 3-[1-(2,6-Dichloro-3-fluoro-phenyl)-ethoxy]-5-(2-methyl-1H-indol-7-yl)-pyrazin-2-ylamine] | 5.38 |
| CC(Oc1cc(-c2ccc(CC(=O)N3CCN(C)CC3)cc2)cnc1N)c1c(Cl)ccc(F)c1Cl (centres unmarked) [Example 98, 2-(4-{6-Amino-5-[1-(2,6-dichloro-3-fluoro-phenyl)-ethoxy]-pyridin-3-yl}-phenyl)-1-(4-methyl-piperazin-1-yl)-ethanone] | 7.17 |
| CC(Oc1cc(-c2ccc(F)c(C#N)c2)cnc1N)c1c(Cl)ccc(F)c1Cl (centres unmarked) [Example 103, 5-{6-amino-5-[1-(2,6-dichloro-3-fluorophenyl)ethoxy]pyridin-3-yl}-2-fluorobenzonitrile] | 6.47 |
| COC(=O)c1n[nH]c2cc(-c3cnc(N)c(OC(C)c4c(Cl)ccc(F)c4Cl)c3)ccc12 (centres unmarked) [Example 106, methyl 6-{6-amino-5-[1-(2,6-dichloro-3-fluorophenyl)ethoxy]pyridin-3-yl}-1H-indazole-3-carboxylate] | 7.36 |
| CC(Oc1cc(-c2cnc3[nH]c(=O)oc3c2)cnc1N)c1c(Cl)ccc(F)c1Cl (centres unmarked) [Example 107, 6-{6-amino-5-[1-(2,6-dichloro-3-fluorophenyl)ethoxy]pyridin-3-yl}(1,3]oxazolo[4,5-b]pyridin-2 (3H)-one] | 7.57 |
| COc1cc(-c2cnc(N)c(OC(C)c3c(Cl)ccc(F)c3Cl)c2)ccc1OCCO (centres unmarked) [Example 108, 2-(4-{6-amino-5-[1-(2,6-dichloro-3-fluorophenyl)ethoxy]pyridin-3-yl}-2-methoxyphenoxy)ethanol] | 7.66 |
| Cc1noc(C)c1-c1cnc(N)c(OC(C)c2c(Cl)ccc(F)c2Cl)c1 (centres unmarked) [Example 109, 3-[1-(2,6-dichloro-3-fluoropheny)ethoxy]-5-(3,5-dimethylisoxazol-4-yl)pyridin-2-amine] | 6.07 |
| CC(Oc1cc(C2=CCCC2)cnc1N)c1c(Cl)ccc(F)c1Cl (centres unmarked) [Example 110, 5-cyclopent-1-en-1-yl-3-[1-(2,6-dichloro-3-fluorophenyl)ethoxy]pyridin-2-amine] | 6.60 |
| CC(Oc1cc(-c2cncnc2)cnc1N)c1c(Cl)ccc(F)c1Cl (centres unmarked) [Example 113, 3-[1-(2,6-dichloro-3-fluorophenyl)ethoxy]-5-pyrimidin-5-ylpyridin-2-amine] | 6.44 |
| CC(Oc1cc(-c2cnc(OC3CCN(C(=O)OC(C)(C)C)CC3)nc2)cnc1N)c1c(Cl)ccc(F)c1Cl (centres unmarked) [Example 114, tert-butyl 4-[(5-{6-amino-5-[1-(2,6-dichloro-3-fluorophenyl)ethoxy]pyridin-3-yl}pyrimidin-2-yl)oxy]piperidine-1-carboxylate] | 6.32 |
| CC(Oc1cc(-c2cnc(Cl)nc2)cnc1N)c1c(Cl)ccc(F)c1Cl (centres unmarked) [Example 115, 5-(2-chloropyrimidin-5-yl)-3-[1-(2,6-dichloro-3-fluorophenyl)ethoxy]pyridin-2-amine] | 5.82 |

Further lines, results first:

| pKi | SMILES |
| --- | --- |
| 7.15 | CC(Oc1cc(-c2ccc(C(=O)N3CCNCC3)cc2)cnc1N)c1c(Cl)ccc(O)c1Cl (centres unmarked) [Example 79, (4-{6-Amino-5-[1-(2,6-dichloro-3-hydroxy-phenyl)-ethoxy]-pyridin-3-yl}-phenyl)-piperazin-1-yl-methanone] |
| 8.22 | COc1ccc(Cl)c(C(C)Oc2cc(-c3ccc(C(=O)N4CCNCC4)cc3)cnc2N)c1Cl (centres unmarked) [Example 80, (4-{6-Amino-5-[1-(2,6-dichloro-3-methoxy-phenyl)-ethoxy]-pyridin-3-yl}-phenyl)-piperazin-1-yl-methanone] |
| 6.39 | Cc1ccc(Cl)c(C(C)Oc2cc(-c3ccc(C(=O)N4CCC(N5CCCC5)CC4)cc3)cnc2N)c1F (centres unmarked) [Example 82, (4-{6-Amino-5-[1-(6-chloro-2-fluoro-3-methyl-phenyl)-ethoxy]-pyridin-3-yl}-phenyl)-(4-pyrrolidin-1-yl-piperidin-1-yl)-methanone] |
| 6.66 | CC(Oc1cc(-c2ccc(C(=O)N3CCC(N4CCCC4)CC3)cc2)cnc1N)c1c(Cl)ccc(Cl)c1F (centres unmarked) [Example 96, (4-{6-Amino-5-[1-(3,6-dichloro-2-fluoro-phenyl)-ethoxy]-pyridin-3-yl}-phenyl)-(4-pyrrolidin-1-yl-piperidin-1-yl)-methanone] |
| 6.49 | CC(Oc1cc(-c2ccc(C(=O)N3C[C@@H](C)N[C@@H](C)C3)cc2)cnc1N)c1c(Cl)ccc(Cl)c1F (some centres unmarked) [Example 97, (4-{6-Amino-5-[1-(3,6-dichloro-2-fluoro-phenyl)-ethoxy]-pyridin-3-yl}-phenyl)-(3,5-dimethyl-piperazin-1-yl)-methanone] |
| 7.40 | CC(Oc1cc(-c2ccc(CC(=O)N3CCC(N)C3)cc2)cnc1N)c1c(Cl)ccc(F)c1Cl (centres unmarked) [Example 99, 2-(4-{6-Amino-5-[1-(2,6-dichloro-3-fluoro-phenyl)-ethoxy]-pyridin-3-yl}-phenyl)-1-(3-amino-pyrrolidin-1-yl)-ethanone] |
| 7.43 | CC(Oc1cc(-c2ccc(CC(=O)N3CCNCC3)cc2)cnc1N)c1c(Cl)ccc(F)c1Cl (centres unmarked) [Example 100, 2-(4-{6-Amino-5-[1-(2,6-dichloro-3-fluoro-phenyl)-ethoxy]-pyridin-3-yl}-phenyl)-1-piperazin-1-yl-ethanone] |
| 7.41 | CC(Oc1cc(-c2ccc(CC(=O)N3CC4C(N)C4C3)cc2)cnc1N)c1c(Cl)ccc(F)c1Cl (centres unmarked) [Example 101, 1-(6-Amino-3-aza-bicyclo[3.1.0]hex-3-yl)-2-(4-{6-amino-5-[1-(2,6-dichloro-3-fluoro-phenyl)-ethoxy]-pyridin-3-yl}-phenyl)-ethanone] |
| 6.79 | CC(Oc1cc(-c2ccc(NC(=O)C3CCNCC3)nc2)cnc1N)c1c(Cl)ccc(F)c1Cl (centres unmarked) [Example 102, Piperidine-4-carboxylic acid {6′-amino-5′-[1-(2,6-dichloro-3-fluoro-phenyl)-ethoxy]-[3,3′]bipyridinyl-6-yl}-amide] |
| 8.00 | C[C@@H](Oc1cc(-c2ccc(C(=O)N3CCNCC3)cc2)cnc1N)c1c(Cl)ccc(F)c1Cl [Example 104, 3-[(1R)-1-(2,6-dichloro-3-fluorophenyl)ethoxy]-5-[4-(piperazin-1-ylcarbonyl)phenyl] pyridin-2-amine] |
| 7.36 | CC(Oc1cc(-c2ccc(OCCN3CCCC3)cc2)cnc1N)c1c(Cl)ccc(F)c1Cl (centres unmarked) [Example 105, 3-[1-(2,6-dichloro-3-fluorophenyl)ethoxy]-5-[4-(2-pyrrolidin-1-ylethoxy)phenyl] pyridin-2-amine] |
| 7.55 | COc1cc(-c2cnc(N)c(OC(C)c3c(Cl)ccc(F)c3Cl)c2)ccc1OCCN1CCCC1 (centres unmarked) [Example 111, 3-[1-(2,6-dichloro-3-fluorophenyl)ethoxy]-5-[3-methoxy-4-(2-pyrrolidin-1-ylethoxy)phenyl]pyridin-2-amine] |
| 7.74 | CC(Oc1cc(-c2ccc(C(=O)N3CC(N)C3)cc2)cnc1N)c1c(Cl)ccc(F)c1Cl (centres unmarked) [Example 112, 5-{4-[(3-aminoazetidin-1-yl)carbonyl]phenyl}-3-[1-(2,6-dichloro-3-fluorophenyl)ethoxy]pyridin-2-amine] |

same assay, conditions: compound at 1 μM

| inhibition at 1 µM | SMILES |
| --- | --- |
| 11% | CCC(Oc1cc(-c2ccc(C(=O)N3CCC(N4CCCC4)CC3)cc2)cnc1N)c1cc(F)c(F)cc1F (centres unmarked) [Example 83, (4-{6-Amino-5-[1-(2,4,5-trifluoro-phenyl)-propoxy]-pyridin-3-yl}-phenyl)-(4-pyrrolidin-1-yl-piperidin-1-yl)-methanone] |
| 20% | CC(Oc1cc(-c2ccc(C(=O)N3CCC(N4CCCC4)CC3)cc2)cnc1N)c1cccc(C(=O)NCCc2cccc(O)c2)c1 (centres unmarked) [Example 87, 3-(1-{2-Amino-5-[4-(4-pyrrolidin-1-yl-piperidine-1-carbonyl)-phenyl]-pyridin-3-yloxy}-ethyl)-N-[2-(3-hydroxy-phenyl)-ethyl]-benzamide] |
